The source made the active and inactive calls. The rule behind the calls is not given here.
Tests used:
[1] = target: T1, Protein fem-1 homolog B/Histone deacetylase 1 (Homo sapiens, UniProt Q13547+Q9UK73); experiment: PROTAC activity at FEM1B/HDAC1 in human MM.1S cell lysate assessed as maximal initial degradation at measured after 24 hrs by Western immunoassay relative to control; format: subcellular; conditions: MM1.S
[2] = target: Protein fem-1 homolog B//Mesoderm induction early response protein 1 (Homo sapiens) (UniProt Q9UK73+Q8N108); experiment: PROTAC activity at FEM1B/MIER1 in human MM1.S cell lysate assessed as protein degradation at 0.5 uM measured after 6 hrs by global quantitative proteomics analysis; format: subcellular
[3] = target: Protein fem-1 homolog B/REST corepressor 1 (Homo sapiens) (UniProt Q9UKL0+Q9UK73); experiment: PROTAC activity at FEM1B/RCOR1 in human MM1.S cell lysate assessed as protein degradation at 0.5 uM measured after 6 hrs by global quantitative proteomics analysis; format: subcellular
[4] = target: Protein fem-1 homolog B/Lysine-specific histone demethylase 1A (Homo sapiens) (UniProt O60341+Q9UK73); experiment: PROTAC activity at FEM1B/KDM1A (LSD1) in human MM1.S cell lysate assessed as protein degradation at 0.5 uM measured after 6 hrs by global quantitative proteomics analysis; format: subcellular
[5] = target: T1, Protein fem-1 homolog B/Histone deacetylase 1; experiment: PROTAC activity at FEM1B/HDAC1 in human U-87 MG cell lysate assessed as protein degradation at 10 uM measured after 24 hrs by Western immunoassay relative to control; format: subcellular
MM1.S [6] = experiment: Induction of apoptosis in human MM1.S cells assessed as increase in early apoptotic cells at 10 uM measured after 48 hrs by annexin V-FITC/PI staining based assay; format: functional, cell-based
[7] = target: T1, Protein fem-1 homolog B/Histone deacetylase 1; experiment: PROTAC activity at FEM1B/HDAC1 in human MM1.S cell lysate assessed as initial degradation at 1 uM measured after 24 hrs by Western immunoassay; format: subcellular
[8] = target: T1, Protein fem-1 homolog B/Histone deacetylase 1; experiment: PROTAC activity at FEM1B/HDAC1 in human MM1.S cell lysate assessed as neddylation-dependent protein degradation at 1 uM in presence of MLN4924 measured after 24 hrs by Western immunoassay; format: subcellular
[9] = target: T1, Protein fem-1 homolog B/Histone deacetylase 1; experiment: PROTAC activity at FEM1B/HDAC1 in human MM1.S cell lysate assessed as protein degradation at 1 uM measured after 24 hrs by Western immunoassay; format: subcellular
[10] = target: Protein fem-1 homolog B/Histone deacetylase 4 (Homo sapiens) (UniProt P56524+Q9UK73); experiment: PROTAC activity at FEM1B/HDAC4 in human MM1.S cell lysate assessed as protein degradation at 1 uM measured after 24 hrs by Western immunoassay; format: subcellular
Sequence of Protein fem-1 homolog B/Histone deacetylase 4 (Homo sapiens) (P56524 whole entry, looked up): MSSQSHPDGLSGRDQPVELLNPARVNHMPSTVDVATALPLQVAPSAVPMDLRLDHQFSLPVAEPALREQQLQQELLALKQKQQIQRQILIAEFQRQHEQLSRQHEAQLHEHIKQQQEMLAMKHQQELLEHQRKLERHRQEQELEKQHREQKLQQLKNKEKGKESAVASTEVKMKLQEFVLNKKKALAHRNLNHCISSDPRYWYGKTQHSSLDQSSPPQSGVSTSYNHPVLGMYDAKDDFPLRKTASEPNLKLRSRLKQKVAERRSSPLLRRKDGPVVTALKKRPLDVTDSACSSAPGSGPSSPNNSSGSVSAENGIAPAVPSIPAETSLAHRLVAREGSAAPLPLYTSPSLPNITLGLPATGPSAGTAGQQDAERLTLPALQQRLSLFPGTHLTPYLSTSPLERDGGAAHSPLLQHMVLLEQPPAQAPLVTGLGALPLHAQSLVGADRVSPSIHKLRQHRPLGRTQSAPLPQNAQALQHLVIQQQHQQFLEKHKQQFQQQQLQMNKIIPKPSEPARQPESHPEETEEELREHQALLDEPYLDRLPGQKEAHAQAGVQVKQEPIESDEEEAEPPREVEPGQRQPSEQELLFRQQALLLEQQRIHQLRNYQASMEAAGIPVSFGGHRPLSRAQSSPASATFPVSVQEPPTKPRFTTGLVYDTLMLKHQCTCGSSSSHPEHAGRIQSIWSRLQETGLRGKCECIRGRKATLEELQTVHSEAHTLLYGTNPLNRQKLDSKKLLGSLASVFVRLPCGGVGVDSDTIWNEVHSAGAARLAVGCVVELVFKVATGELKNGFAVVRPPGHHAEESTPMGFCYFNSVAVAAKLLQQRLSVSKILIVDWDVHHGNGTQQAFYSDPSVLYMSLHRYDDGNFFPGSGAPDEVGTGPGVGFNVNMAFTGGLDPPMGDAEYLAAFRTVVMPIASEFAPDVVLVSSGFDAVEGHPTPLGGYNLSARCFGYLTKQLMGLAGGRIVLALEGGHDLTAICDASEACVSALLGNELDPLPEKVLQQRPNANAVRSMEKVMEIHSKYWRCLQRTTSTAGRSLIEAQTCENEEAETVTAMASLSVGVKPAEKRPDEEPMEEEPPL
Sequence of Protein fem-1 homolog B/Histone deacetylase 4 (Homo sapiens) (Q9UK73 whole entry, looked up): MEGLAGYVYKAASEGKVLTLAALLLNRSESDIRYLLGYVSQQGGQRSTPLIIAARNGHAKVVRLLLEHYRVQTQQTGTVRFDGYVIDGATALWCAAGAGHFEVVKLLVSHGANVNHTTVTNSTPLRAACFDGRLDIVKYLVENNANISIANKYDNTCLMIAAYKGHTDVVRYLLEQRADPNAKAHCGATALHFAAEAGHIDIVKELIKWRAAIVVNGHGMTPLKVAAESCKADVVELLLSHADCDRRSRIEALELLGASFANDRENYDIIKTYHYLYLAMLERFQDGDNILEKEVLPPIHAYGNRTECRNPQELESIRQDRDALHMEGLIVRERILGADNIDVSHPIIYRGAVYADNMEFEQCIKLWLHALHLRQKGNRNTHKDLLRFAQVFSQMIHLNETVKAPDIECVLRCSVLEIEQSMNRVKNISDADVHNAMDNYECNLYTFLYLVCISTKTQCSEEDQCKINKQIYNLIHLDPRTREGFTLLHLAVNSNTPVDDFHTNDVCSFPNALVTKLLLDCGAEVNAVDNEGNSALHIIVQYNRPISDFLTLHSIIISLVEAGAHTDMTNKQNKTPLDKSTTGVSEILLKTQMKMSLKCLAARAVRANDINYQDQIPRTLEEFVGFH

[11] = target: Protein fem-1 homolog B/Protein deacetylase HDAC6 (Homo sapiens) (UniProt Q9UBN7+Q9UK73); experiment: PROTAC activity at FEM1B/HDAC6 in human MM1.S cell lysate assessed as protein degradation at 1 uM measured after 24 hrs by Western immunoassay; format: subcellular
[12] = target: T1, Protein fem-1 homolog B/Histone deacetylase 1; experiment: PROTAC activity at FEM1B/HDAC1 in human MV4-11 cell lysate assessed as protein degradation at 10 uM measured after 24 hrs by Western immunoassay relative to control; format: subcellular
[13] = target: Protein fem-1 homolog B/Histone deacetylase 3 (Homo sapiens) (UniProt O15379+Q9UK73); experiment: PROTAC activity at FEM1B/HDAC3 in human MM1.S cell lysate assessed as protein degradation at 1 uM measured after 24 hrs by Western immunoassay; format: subcellular
MM1.S [14] = experiment: Induction of apoptosis in human MM1.S cells assessed as increase in late apoptotic cells at 10 uM measured after 48 hrs by annexin V-FITC/PI staining based assay; format: functional, cell-based
[15] = target: T1, Protein fem-1 homolog B/Histone deacetylase 1; experiment: PROTAC activity at FEM1B/HDAC1 in human MDA-MB-231 cell lysate assessed as protein degradation at 10 uM measured after 24 hrs by Western immunoassay relative to control; format: subcellular
MM1.S [16] = experiment: Induction of cell cycle arrest in human MM1.S cells assessed as reduction in cells at […] phase at 10 uM measured after 48 hrs by propidium iodide based flow cytometry; format: functional
[17] = target: Protein fem-1 homolog B/Histone deacetylase 8 (Homo sapiens) (UniProt Q9BY41+Q9UK73); experiment: PROTAC activity at FEM1B/HDAC8 in human MM1.S cell lysate assessed as protein degradation at 1 uM measured after 24 hrs by Western immunoassay; format: subcellular
Sequence of Protein fem-1 homolog B/Histone deacetylase 8 (Homo sapiens) (Q9BY41 whole entry, looked up): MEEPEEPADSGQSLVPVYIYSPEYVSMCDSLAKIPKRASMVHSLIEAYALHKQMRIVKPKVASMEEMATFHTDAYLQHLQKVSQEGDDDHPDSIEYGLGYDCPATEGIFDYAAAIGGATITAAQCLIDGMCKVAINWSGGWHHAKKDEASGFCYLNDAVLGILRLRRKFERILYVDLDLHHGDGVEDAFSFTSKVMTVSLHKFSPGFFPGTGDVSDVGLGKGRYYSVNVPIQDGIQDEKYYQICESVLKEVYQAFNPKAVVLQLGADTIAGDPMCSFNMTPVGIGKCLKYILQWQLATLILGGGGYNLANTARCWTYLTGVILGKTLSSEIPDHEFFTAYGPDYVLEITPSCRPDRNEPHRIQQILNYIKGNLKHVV
Sequence of Protein fem-1 homolog B/Histone deacetylase 8 (Homo sapiens) (Q9UK73 whole entry, looked up): as the sequence (Q9UK73 whole entry, looked up) above

[18] = target: Protein fem-1 homolog B/Nuclear receptor corepressor 1 (Homo sapiens) (UniProt O75376+Q9UK73); experiment: PROTAC activity at FEM1B/NCOR1 in human MM1.S cell lysate assessed as protein degradation at 0.5 uM measured after 6 hrs by global quantitative proteomics analysis; format: subcellular
[19] = target: T1, Protein fem-1 homolog B/Histone deacetylase 1; experiment: PROTAC activity at FEM1B/HDAC1 in human MM1.S cell lysate assessed as neddylation-dependent protein degradation at 1 uM in presence of vorinostat measured after 24 hrs by Western immunoassay; format: subcellular
MM1.S [20] = experiment: Induction of cell cycle arrest in human MM1.s cells assessed as increase in cells at Sub-G1 phase at 10 uM measured after 48 hrs by propidium iodide based flow cytometry; format: functional
[21] = target: Protein fem-1 homolog B/REST corepressor 3 (Homo sapiens) (UniProt Q9P2K3+Q9UK73); experiment: PROTAC activity at FEM1B/RCOR3 in human MM1.S cell lysate assessed as protein degradation at 0.5 uM measured after 6 hrs by global quantitative proteomics analysis; format: subcellular
[22] = target: Protein fem-1 homolog B/Histone deacetylase 2 (Homo sapiens) (UniProt Q92769+Q9UK73); experiment: PROTAC activity at FEM1B/HDAC2 in human MM1.S cell lysate assessed as protein degradation at 1 uM measured after 24 hrs by Western immunoassay; format: subcellular
Sequence of Protein fem-1 homolog B/Histone deacetylase 2 (Homo sapiens) (Q92769 whole entry, looked up): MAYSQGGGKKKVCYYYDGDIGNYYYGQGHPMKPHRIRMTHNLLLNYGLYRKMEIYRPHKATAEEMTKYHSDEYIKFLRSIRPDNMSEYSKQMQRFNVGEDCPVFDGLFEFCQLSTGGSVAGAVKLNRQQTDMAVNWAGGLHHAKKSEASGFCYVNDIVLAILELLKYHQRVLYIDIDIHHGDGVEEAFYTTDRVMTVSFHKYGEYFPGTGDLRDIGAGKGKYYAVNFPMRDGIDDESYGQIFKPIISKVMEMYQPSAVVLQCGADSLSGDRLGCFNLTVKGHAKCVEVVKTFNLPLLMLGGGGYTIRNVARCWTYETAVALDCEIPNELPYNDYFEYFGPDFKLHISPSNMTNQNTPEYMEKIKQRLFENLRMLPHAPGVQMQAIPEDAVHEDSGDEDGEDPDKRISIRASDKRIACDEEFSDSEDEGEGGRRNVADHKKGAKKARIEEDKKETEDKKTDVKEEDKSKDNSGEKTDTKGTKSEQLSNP
Sequence of Protein fem-1 homolog B/Histone deacetylase 2 (Homo sapiens) (Q9UK73 whole entry, looked up): as the sequence (Q9UK73 whole entry, looked up) above

[23] = target: Protein fem-1 homolog B//Paired amphipathic helix protein Sin3a (Homo sapiens) (UniProt Q9UK73+Q96ST3); experiment: PROTAC activity at FEM1B/SIN3A in human MM1.S cell lysate assessed as protein degradation at 0.5 uM measured after 6 hrs by global quantitative proteomics analysis; format: subcellular

T1 sequence (Q13547 whole entry, looked up): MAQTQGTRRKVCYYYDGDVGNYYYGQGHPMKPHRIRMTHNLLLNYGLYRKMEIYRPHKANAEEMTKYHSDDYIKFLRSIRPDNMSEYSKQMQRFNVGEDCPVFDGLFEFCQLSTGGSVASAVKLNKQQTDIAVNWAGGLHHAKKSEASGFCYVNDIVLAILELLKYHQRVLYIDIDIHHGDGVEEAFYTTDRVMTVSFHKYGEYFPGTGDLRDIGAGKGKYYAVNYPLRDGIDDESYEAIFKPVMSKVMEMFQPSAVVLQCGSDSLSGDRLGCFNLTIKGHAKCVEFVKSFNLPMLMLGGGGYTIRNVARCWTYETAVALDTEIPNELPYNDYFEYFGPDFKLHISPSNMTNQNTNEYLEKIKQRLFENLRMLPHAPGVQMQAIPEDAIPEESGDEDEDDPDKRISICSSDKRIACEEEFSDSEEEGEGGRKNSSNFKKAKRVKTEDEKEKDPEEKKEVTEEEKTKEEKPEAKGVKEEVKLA
T1 sequence (Q9UK73 whole entry, looked up): as the sequence (Q9UK73 whole entry, looked up) above

- Emax [1]: 85.2%
- Activity [2]: Active
- Activity [3]: Active
- Activity [4]: Active
- Activity [5]: 75%
- Activity [7]: 62.3%
- Activity [8]: inactive
- Activity [9]: Active
- Activity [10]: inactive
- Activity [11]: inactive
- Activity [12]: 87%
- Activity [13]: Active
- Activity [15]: 53%
- Activity [17]: inactive
- Activity [18]: Active
- Activity [19]: inactive
- Activity [21]: Active
- Activity [22]: Active
- Activity [23]: Active
SMILES: N#CCCN(C(=O)CCl)c1ccc2c(c1)OCCN2CC(=O)NCC(=O)Nc1ccc(C(=O)NCCCCCCC(=O)NO)cc1
- Activity (MM1.S [6]): Active
- Activity (MM1.S [14]): Active
- Activity (MM1.S [16]): Active
- Activity (MM1.S [20]): Active
